Results reported in US20240246967A1, “AXL COMPOUNDS” (ARCUS BIOSCIENCES, INC., priority 2021, published 2024).

The compounds below were run against T1, Axl (Homo sapiens, UniProt P30530) (assay: Axl NanoBRET intracellular kinase assay (intracellular binding, Cell Binding)). Conditions: HEK-293 cells transfected with Axl-NanoLuc fusion vector; 0.35 μM K-5 NanoBRET tracer.
T1 sequence (P30530 26-894): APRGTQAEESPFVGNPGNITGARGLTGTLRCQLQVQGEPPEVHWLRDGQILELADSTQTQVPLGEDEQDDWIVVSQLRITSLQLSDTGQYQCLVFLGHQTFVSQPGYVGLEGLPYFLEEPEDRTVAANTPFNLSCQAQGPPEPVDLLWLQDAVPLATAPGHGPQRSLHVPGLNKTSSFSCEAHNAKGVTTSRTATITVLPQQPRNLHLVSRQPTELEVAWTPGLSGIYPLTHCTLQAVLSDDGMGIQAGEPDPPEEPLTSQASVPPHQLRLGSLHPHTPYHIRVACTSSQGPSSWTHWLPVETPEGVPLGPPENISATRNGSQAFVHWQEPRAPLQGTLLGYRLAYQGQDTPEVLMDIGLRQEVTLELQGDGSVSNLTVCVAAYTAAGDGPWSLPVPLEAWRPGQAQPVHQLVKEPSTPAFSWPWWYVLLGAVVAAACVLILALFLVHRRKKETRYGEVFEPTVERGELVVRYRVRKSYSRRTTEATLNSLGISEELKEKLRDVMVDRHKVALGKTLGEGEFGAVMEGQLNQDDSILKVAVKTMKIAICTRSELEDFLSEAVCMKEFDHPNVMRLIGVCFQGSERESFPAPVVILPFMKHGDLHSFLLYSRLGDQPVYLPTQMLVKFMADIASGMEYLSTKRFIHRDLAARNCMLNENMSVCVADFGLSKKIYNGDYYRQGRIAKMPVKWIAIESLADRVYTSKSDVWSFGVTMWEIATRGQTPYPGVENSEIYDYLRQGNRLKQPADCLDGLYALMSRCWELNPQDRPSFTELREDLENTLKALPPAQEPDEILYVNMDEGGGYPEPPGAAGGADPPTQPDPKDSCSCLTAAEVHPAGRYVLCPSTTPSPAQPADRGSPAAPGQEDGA
Set-up: host or cells: HEK-293
Description: Axl NanoBRET™ intracellular kinase assay (Promega, N2540) was performed according to manufacturer's recommendation. In brief, HEK-293 cells are transiently transfected with Axl-NanoLuc fusion vector (Promega, NV1071), utilizing Fugene HD transfection reagent (Promega, E2311) a day before experiment following manufacturer's recommendation.
The day of the assay, the cells were collected and resuspended in Opti-MEM media (ThermoFisher, 31985070) at 2e5 cells/mL concentration. Testing compounds were serial diluted and dispensed into a white 384 well polystyrene plate at 200 nL in 100% DMSO. 40 μL of resuspended cells is then added per well for a final condition of 8K cells/well with 0.5% DMSO. After one-hour compound pre-incubation at 37° C. and 5% CO2, cells were further incubated with 0.35 μM K-5 NanoBRET tracer for two-hours at 37° C. and 5% CO2. […] of 3× substrate plus Inhibitor solution was prepared according to kits manual and added to the cells followed by a 30 second pulse centrifugation spin. The plate was then immediately read utilizing an Envision (Perkin Elmer) plate reader. The BRET signal is measured by taking the ratio of the emissions reading at 610 nm and 450 nm. Compound binding is based on the decrease BRET signal caused by the displacement of the K-5 tracer. […] IC50 value of compounds was determined by 4-parameter non-linear regression fitting of percent activity in GraphPad Prism software.

Question: `C[C@@H]1CCCN1C1CCc2ccc(-c3cnc4[nH]nc(-c5ccc(C(C)(C)O)c(C(F)(F)F)c5)c4c3)cc2CC1` (stereo partly drawn) [Example 20, 2-[4-(5-{7-[(2R)-2-Methylpyrrolidin-1-yl]-6,7,8,9-tetrahydro-5H-benzo[7]annulen-2-yl}-1H-pyrazolo[3,4-b]pyridin-3-yl)-2-(trifluoromethyl)phenyl]propan-2-ol] was tested. Which IC50 did it give?
Answer: The IC50 was < 0.1 µM.

Question: With `CC(C)(O)c1ccc(-c2n[nH]c3ncc(-c4ccc5c(c4)CCC(N4CCC[C@@H]4CO)CC5)cc23)cc1Cl` (stereo partly drawn) [Example 21, 2-[2-Chloro-4-(5-{7-[(2R)-2-(hydroxymethyl)pyrrolidin-1-yl]-6,7,8,9-tetrahydro-5H-benzo[7]annulen-2-yl}-1H-pyrazolo[3,4-b]pyridin-3-yl)phenyl]propan-2-ol] as the compound, how does the IC50 read?
Answer: Its IC50 is < 0.1 µM.

Question: `C[C@@H]1CCCN1C1(C)CCc2ccc(-c3cnc4[nH]nc(-c5ccc(C(C)(C)O)nc5)c4c3)cc2CC1` (stereo partly drawn) [Example 22, 2-[5-(5-{7-Methyl-7-[(2R)-2-methylpyrrolidin-1-yl]-6,7,8,9-tetrahydro-5H-benzo[7]annulen-2-yl}-1H-pyrazolo[3,4-b]pyridin-3-yl)pyridin-2-yl]propan-2-ol] was tested. Which IC50 did it give?
Answer: Its IC50 is < 0.1 µM.

Question: How did the IC50 turn out when `CS(=O)(=O)N1CCC(c2n[nH]c3ncc(-c4ccc5c(c4)CCC(N4CCCC4)CC5)cc23)CC1` (centres unmarked) [Example 23, 1-Methanesulfonyl-4-{5-[7-(pyrrolidin-1-yl)-6,7,8,9-tetrahydro-5H-benzo[7]annulen-2-yl]-1H-pyrazolo[3,4-b]pyridin-3-yl}piperidine] was run?
Answer: The IC50 was 0.1 to 1 µM.

Question: For `C[C@H]1CCCN1C1CCc2ccc(-c3cnc4[nH]nc(-c5ccc(S(=O)(=O)C6CC6)cc5)c4c3)cc2CC1` (stereo partly drawn) [Example 24, 3-(4-(Cyclopropylsulfonyl)phenyl)-5-(7-((S)-2-methylpyrrolidin-1-yl)-6,7,8,9-tetrahydro-5H-benzo[7]annulen-2-yl)-1H-pyrazolo[3,4-b]pyridine], which IC50 is on record?
Answer: Its IC50 is < 0.1 µM.

Question: `C[C@@H]1CCCN1C1(C)CCc2ccc(-c3cnc4[nH]nc(-c5ccc(S(=O)(=O)C6CC6)c(F)c5)c4c3)cc2CC1` (stereo partly drawn) [Example 25, (2R)-1-(2-{3-[4-(Cyclopropanesulfonyl)-3-fluorophenyl]-1H-pyrazolo[3,4-b]pyridin-5-yl}-7-methyl-6,7,8,9-tetrahydro-5H-benzo[7]annulen-7-yl)-2-methylpyrrolidine] was tested. Which IC50 did it give?
Answer: Its IC50 is < 0.1 µM.

Question: With `O=S(=O)(c1ccc(-c2n[nH]c3ncc(-c4ccc5c(c4)CCN(C4CCOCC4)CC5)cc23)cc1)C1CC1` [Example 26, 7-{3-[4-(Cyclopropanesulfonyl)phenyl]-1H-pyrazolo[3,4-b]pyridin-5-yl}-3-(oxan-4-yl)-2,3,4,5-tetrahydro-1H-3-benzazepine] as the compound, how does the IC50 read?
Answer: The IC50 was 0.1 to 1 µM.

Question: Which IC50 does the source give for `O=S(=O)(c1ccc(-c2n[nH]c3ncc(-c4ccc5c(c4)CCN(CC4CCOC4)CC5)cc23)cc1)C1CC1` (centres unmarked) [Example 27, 7-{3-[4-(Cyclopropanesulfonyl)phenyl]-1H-pyrazolo[3,4-b]pyridin-5-yl}-3-[(oxolan-3-yl)methyl]-2,3,4,5-tetrahydro-1H-3-benzazepine] here?
Answer: The IC50 was 0.1 to 1 µM.

Question: How did the IC50 turn out when `CS(=O)(=O)c1ccc(-c2n[nH]c3ncc(-c4ccc5c(c4)CCN(C4CCCC4)CC5)cc23)cc1` [Example 30, 3-Cyclopentyl-7-(3-(4-(methylsulfonyl)phenyl)-1H-pyrazolo[3,4-b]pyridin-5-yl)-2,3,4,5-tetrahydro-1H-benzo[d]azepine] was run?
Answer: The IC50 was 0.1 to 1 µM.

Question: Which IC50 does the source give for `CS(=O)(=O)c1ccc(-c2n[nH]c3ncc(-c4ccc5c(c4)CCN(C4CCCC4)CC5)cc23)cc1Cl` [Example 31, 7-(3-(3-Chloro-4-(methylsulfonyl)phenyl)-1H-pyrazolo[3,4-b]pyridin-5-yl)-3-cyclopentyl-2,3,4,5-tetrahydro-1H-benzo[d]azepine] here?
Answer: The IC50 was 0.1 to 1 µM.

Question: `CS(=O)(=O)c1ccc(-c2n[nH]c3ncc(-c4ccc5c(c4)CCN(C4CCCC4)CC5)cc23)cc1F` [Example 32, 3-Cyclopentyl-7-(3-(3-fluoro-4-(methylsulfonyl)phenyl)-1H-pyrazolo[3,4-b]pyridin-5-yl)-2,3,4,5-tetrahydro-1H-benzo[d]azepine] was tested. Which IC50 did it give?
Answer: Its IC50 is 0.1 to 1 µM.

Question: Which IC50 does the source give for `COCCN1CCc2ccc(-c3cnc4[nH]nc(-c5ccc(C(C)(C)O)c(Cl)c5)c4c3)cc2CC1` [Example 34, 2-(2-Chloro-4-(5-(3-(2-methoxyethyl)-2,3,4,5-tetrahydro-1H-benzo[d]azepin-7-yl)-1H-pyrazolo[3,4-b]pyridin-3-yl)phenyl)propan-2-ol] here?
Answer: The IC50 was > 1 µM.

Question: `C[C@@H]1CCCN1C1CCc2ccc(-c3cnc4[nH]nc(-c5ccc(C(C)(C)O)c(Cl)c5)c4c3)cc2CC1` (stereo partly drawn) [Example 35, 2-(2-Chloro-4-(5-(7-((R)-2-methylpyrrolidin-1-yl)-6,7,8,9-tetrahydro-5H-benzo[7]annulen-2-yl)-1H-pyrazolo[3,4-b]pyridin-3-yl)phenyl)propan-2-ol] was tested. Which IC50 did it give?
Answer: The IC50 was < 0.1 µM.

Question: For `C[C@H]1CCCN1C1CCc2ccc(-c3cnc4[nH]nc(-c5ccc(S(C)(=O)=O)cc5)c4c3)cc2CC1` (stereo partly drawn) [Example 36, 5-(7-((S)-2-Methylpyrrolidin-1-yl)-6,7,8,9-tetrahydro-5H-benzo[7]annulen-2-yl)-3-(4-(methylsulfonyl)phenyl)-1H-pyrazolo[3,4-b]pyridine], which IC50 is on record?
Answer: Its IC50 is < 0.1 µM.

Question: Which IC50 does the source give for `C[C@H]1CCCN1C1CCc2ccc(-c3cnc4[nH]nc(-c5ccc(C(C)(C)O)c(Cl)c5)c4c3)cc2CC1` (stereo partly drawn) [Example 37, 2-(2-Chloro-4-(5-(7-((S)-2-methylpyrrolidin-1-yl)-6,7,8,9-tetrahydro-5H-benzo[7]annulen-2-yl)-1H-pyrazolo[3,4-b]pyridin-3-yl)phenyl)propan-2-ol] here?
Answer: The IC50 was < 0.1 µM.

Question: Which IC50 does the source give for `C[C@@H]1CCCN1C1CCc2ccc(-c3cnc4[nH]nc(-c5ccc(S(C)(=O)=O)cc5)c4c3)cc2CC1` (stereo partly drawn) [Example 38, 5-(7-((R)-2-Methylpyrrolidin-1-yl)-6,7,8,9-tetrahydro-5H-benzo[7]annulen-2-yl)-3-(4-(methylsulfonyl)phenyl)-1H-pyrazolo[3,4-b]pyridine] here?
Answer: Its IC50 is < 0.1 µM.

Question: `C[C@@H]1CCCN1C1CCc2ccc(-c3cnc4[nH]nc(-c5ccc(S(=O)(=O)C6CC6)cc5)c4c3)cc2CC1` (stereo partly drawn) [Example 39, 3-(4-(Cyclopropylsulfonyl)phenyl)-5-(7-((R)-2-methylpyrrolidin-1-yl)-6,7,8,9-tetrahydro-5H-benzo[7]annulen-2-yl)-1H-pyrazolo[3,4-b]pyridine] was tested. Which IC50 did it give?
Answer: Its IC50 is < 0.1 µM.

Question: For `O=S(=O)(c1ccc(-c2n[nH]c3ncc(-c4ccc5c(c4)CC[C@@H](N4CCCC4)CC5)cc23)cc1)C1CC1` [Example 40, (S)-3-(4-(Cyclopropylsulfonyl)phenyl)-5-(7-(pyrrolidin-1-yl)-6,7,8,9-tetrahydro-5H-benzo[7]annulen-2-yl)-1H-pyrazolo[3,4-b]pyridine], which IC50 is on record?
Answer: The IC50 was < 0.1 µM.

Question: How did the IC50 turn out when `CCS(=O)(=O)c1ccc(-c2n[nH]c3ncc(-c4ccc5c(c4)CC[C@@H](N4CCCC4)CC5)cc23)cc1` [Example 41, (S)-3-(4-(Ethylsulfonyl)phenyl)-5-(7-(pyrrolidin-1-yl)-6,7,8,9-tetrahydro-5H-benzo[7]annulen-2-yl)-1H-pyrazolo[3,4-b]pyridine] was run?
Answer: Its IC50 is < 0.1 µM.

Question: How did the IC50 turn out when `CC(C)S(=O)(=O)c1ccc(-c2n[nH]c3ncc(-c4ccc5c(c4)CC[C@@H](N4CCCC4)CC5)cc23)cc1` [Example 42, (S)-3-(4-(Isopropylsulfonyl)phenyl)-5-(7-(pyrrolidin-1-yl)-6,7,8,9-tetrahydro-5H-benzo[7]annulen-2-yl)-1H-pyrazolo[3,4-b]pyridine] was run?
Answer: Its IC50 is < 0.1 µM.
